Data on one molecule can be found in patent US20160303205A1, “Combination Therapies for Lysosomal Storage Diseases” (Washington University, priority 2015, published 2016).

Assay [1] deals with Twitcher mice. To be noted: Twitcher mouse; literature (LeVine 2000; Biswas and LeVine 2002); cited from earlier work.
For assay [2], the system named is Twitcher mice. Briefly: Lifespan of Twitcher mice (Kaplan-Meier survival). The format is in vivo, mouse. The text has this: Treated and untreated Twitcher mice as well as untreated controls were used in all experiments. […] The experimental and control animals were randomly assigned to groups for analysis at pre-determined time points (n=3-6 animals per time point) or for life span and behavioral analyses (n=10-14 animals per group). The number of animals per group was based on previous experience with this model and the specific assays as well as power calculations. Quantitative biochemical analyses (GALC activity, psychosine measurements, cytokine/chemokine levels) were performed in duplicate on tissues from 3-6 animals, depending on the assay. Semi-quantitative histomorphometry was performed on at least 3 representative sections per animal from at least 3 animals per group. The photography settings were kept constant for all images. Analysis of variance (ANOVA) was used for group comparisons with Bonferroni correction for pair-wise comparisons. Student's t-test was used to compare the means of two groups. Significant differences in life span were determined by log-rank test. […]
Animals were housed at Washington University School of Medicine. […] Genotypes were determined on postnatal day 1 by PCR as previously described (Sakai et al. 1996 J Neurochem 66:1118-1124; Lin et al., 2005 Molecular Therapy 12:422-430.). […]
Lifespan was recorded as the age of the animal on the date of death or sacrifice. […]

Read-outs that look alike come from different tables or passages of the source.

`N[C@H]1CONC1=O` [L-cycloserine]: the lifespan with Twitcher mice [1] is around 57 days. In addition, the median lifespan with Twitcher mice [2] was around 57 days; in the assay on Twitcher mice [2] (untreated Twitcher 39.5 d) it was 57 days.
